The test system of experiment [1] is MiaPaca2 human pancreatic carcinoma xenografts. The experiment can be described thus: Antitumor efficacy in MiaPaca2 pancreatic xenografts in nude mice. In kind it is in vivo. Particulars: 60 mg/kg ip q3d, day 37. The procedure:
Female (athymic nu/nu) nude mice were obtained from Charles River Laboratories (Wilmington, Mass.), while female SCID-beige mice were purchased from Taconic (Germantown, N.Y.). Mice were used when they were approximately 8-12 weeks old (nudes) or 8-10 weeks old (SCID-beige), and weighed approximately 23-25 grams. The health of all animals was determined daily by gross observation of experimental animals and by the analyses of blood samples of sentinel animals that were housed on the shared shelf racks. All animals were allowed to acclimate and recover from any shipping related stress for a minimum of 72 hours prior to experimental use. Autoclaved water and irradiated food [5058-ms Pico chow (mouse) Purina, Richmond, Ind.] were provided ad libitum, and the animals were maintained on a 12 hour light and dark cycle. Cages, bedding and water bottles were autoclaved before use and were changed weekly. MiaPaca2, AsPC1 and BxPC3 human pancreatic carcinoma cells were purchased from ATCC (Manassas, Va.). BxPC3 and AsPC1 cells were grown in RPMI medium and MiaPaca2 cells were grown in Dulbecco's Modified Essential Medium (DMEM). All culture media were supplemented with 10% (v/v) FBS and 1% (v/v) […]. […] SCID-biege mice were implanted se with 5×10^6 BxPC3 cells in a 1:1 mixture of matrigel:PBS in a volume of 0.2 ml per mouse in the right hind flank on May 22, 2007. […] Formulated compound and vehicle were stored at 4° C. and prepared weekly. The suspension was mixed vigorously prior to administration. Gemcitabine (Gemzar®, Eli Lilly and Company, Indianapolis, Ind., USA) was reconstituted with sterile saline to yield a stock solution of 38 mg/ml for the entire 3-4 week study. […] Nude mice implanted with MiaPaca2 or AsPC1 xenografts were randomized on day 17 and day 9 post cell implant, respectively. SCID-beige mice bearing BxPC3 xenografts were randomized 8 days post implant. […] Treatment for the MiaPaca2 study began on Feb. […] For the MiaPaca2 and AsPC1 studies, qd Compound (1) suspension or q3d gemcitabine treatment ended on day 37 post tumor cell implant, whereas for the BxPC3 study, qd Compound (1) suspension or q3d gemcitabine treatment ended on day 35 post tumor cell implant. For intermittent dosing of Compound (1) suspension in the MiaPaca2 study using the 7+/7−/7+ schedule, treatment ended on day 23, was reinitiated on day 31, and ended day 37. In the combination groups Compound (1) suspension was given sequentially with gemcitabine using the 7+/7−/7+ schedule so that Compound (1) was dosed daily only during the first and third weeks, whereas gemcitabine was dosed q3d during the second week only. Efficacy data was graphically represented as the mean tumor volume+standard error of the mean (SEM). Tumor volumes of treated groups were presented as percentages of tumor volumes of the control groups (% T/C), using the formula: 100×((T−T0)/(C−C0)), where T represented mean tumor volume of a treated group on a specific day during the experiment, T0 represented mean tumor volume of the same […] on the first day of treatment; C represented mean tumor volume of a control group on the specific day during the experiment, and C0 represented mean tumor volume of the same treated group on the first day of treatment. Tumor volume (in cubic millimeters) was calculated using the ellipsoid formula: (D×(d2))/2 where ‘D’ represents the large diameter of the tumor, and ‘d’ represents the small diameter. In some cases, tumor regression and/or percent change in tumor volume was calculated using the formula: ((T−T0)/T0)×100 where ‘T’ represents mean tumor volume of the treated group at a particular day, and ‘T0’ represents mean tumor volume of the same treated group at initiation of treatment. Statistical analysis was determined by the rank sum test and One Way Anova and a post-hoc Bonferroni t-test (SigmaStat, version 2.0, Jandel Scientific, San Francisco, Calif.). […]

The subject of experiment [2] is AsPC1 human pancreatic carcinoma xenografts. The experiment can be described thus: Antitumor efficacy in AsPC1 pancreatic xenografts in nude mice. Particulars: 90 mg/kg ip q3d. In kind it is in vivo. The procedure: Female (athymic nu/nu) nude mice were obtained from Charles River Laboratories (Wilmington, Mass.), while female SCID-beige mice were purchased from Taconic (Germantown, N.Y.). Mice were used when they were approximately 8-12 weeks old (nudes) or 8-10 weeks old (SCID-beige), and weighed approximately 23-25 grams. The health of all animals was determined daily by gross observation of experimental animals and by the analyses of blood samples of sentinel animals that were housed on the shared shelf racks. All animals were allowed to acclimate and recover from any shipping related stress for a minimum of 72 hours prior to experimental use. Autoclaved water and irradiated food [5058-ms Pico chow (mouse) Purina, Richmond, Ind.] were provided ad libitum, and the animals were maintained on a 12 hour light and dark cycle. Cages, bedding and water bottles were autoclaved before use and were changed weekly. MiaPaca2, AsPC1 and BxPC3 human pancreatic carcinoma cells were purchased from ATCC (Manassas, Va.). BxPC3 and AsPC1 cells were grown in RPMI medium and MiaPaca2 cells were grown in Dulbecco's Modified Essential Medium (DMEM). All culture media were supplemented with 10% (v/v) FBS and 1% (v/v) […]. […] SCID-biege mice were implanted se with 5×10^6 BxPC3 cells in a 1:1 mixture of matrigel:PBS in a volume of 0.2 ml per mouse in the right hind flank on May 22, 2007. […] Formulated compound and vehicle were stored at 4° C. and prepared weekly. The suspension was mixed vigorously prior to administration. Gemcitabine (Gemzar®, Eli Lilly and Company, Indianapolis, Ind., USA) was reconstituted with sterile saline to yield a stock solution of 38 mg/ml for the entire 3-4 week study. […] Nude mice implanted with MiaPaca2 or AsPC1 xenografts were randomized on day 17 and day 9 post cell implant, respectively. SCID-beige mice bearing BxPC3 xenografts were randomized 8 days post implant. […] Treatment for the MiaPaca2 study began on Feb. […] For the MiaPaca2 and AsPC1 studies, qd Compound (1) suspension or q3d gemcitabine treatment ended on day 37 post tumor cell implant, whereas for the BxPC3 study, qd Compound (1) suspension or q3d gemcitabine treatment ended on day 35 post tumor cell implant. For intermittent dosing of Compound (1) suspension in the AsPC1 study using the 7+/7− schedule×2 cycles, treatment ended on day 15, was reinitiated on day 23, and finally ended day 29. For intermittent dosing using the 3+/4− schedule×4 cycles, treatment ended on day 11, was reinitiated on day 16, ended day 18, was reinitiated on day 23, ended day 25, was reinitiated day 30, and finally ended on day 32. In the first combination group, daily Compound (1) was given simultaneously with q3d gemcitabine for a total of four weeks. For the remaining combination groups, Compound (1) and gemcitabine were given sequentially rather than simultaneously. In group 8 gemcitabine was dosed q3d during the 1st and 3rd weeks, whereas Compound (1) was given daily during the 2nd and 4th weeks only. In group 9, the order of compound dosing was reversed, with Compound (1) suspension given daily during the 1st and 3rd weeks, whereas gemcitabine was given q3d during the 2nd and 4th weeks. In group 10, gemcitabine was dosed q3d during the 1st and 2nd weeks, whereas Compound (1) was given daily during the 3rd and 4th weeks. In group 11, the order of compound dosing was reversed, with Compound (1) given daily during the 1st and 2nd weeks, and gemcitabine dosed q3d for the 3rd and 4th weeks. […]

The source of these data is patent US8741889B2, “Method of treating non-small cell lung cancer and colon cancer with gamma-secretase inhibitor” (Hoffmann-La Roche Inc, priority 2008, dated 2014).

Each structure is given as a SMILES string.

On to `Nc1ccn([C@@H]2O[C@H](CO)[C@@H](O)C2(F)F)c(=O)n1` [gemcitabine, Gemcitabine, reference compound], for which the “% TGI” value in experiment [1] is recorded as 62%; in experiment [2], 39%.
